In US11318214B2, “Iron oxide mesoporous microparticle drug carrier” (National Guard Health Affairs, priority 2020, dated 2022):

What was measured:
[1] = estimated; cited from earlier work
[2] = Drug loading onto IO-MMMs (UV-vis); type: physicochemical; settings: for amount of drug loaded / loading efficiency: maximal loading onto IO-MMMs; for loading efficiency: absorption spectroscopy
Description: 1 mL aqueous dispersion of IO-MMMs (1.0 mg/mL) and aqueous drug solutions (250 μg/mL) were gently shaken on a rotary shaker for 36 h to enable maximal drug loading. The particle dispersions were then isolated via centrifugation (4500 rpm, 10 min), washed repeatedly with water until no drug was detected in the supernatant by UV-vis, and finally redispersed in water to form stable aqueous dispersions of drug@IO-MMMs. In case of Tam and Daun loading, Tam was first loaded followed by Daun to afford Daun/Tam@IO-MMMs (165 μg/mL Tam; 235 μg/mL Daun). Loading efficiencies were determined by UV-Vis spectroscopy as depicted below. […] The loading efficiency was calculated as: Loading Efficiency=(W1/W0)×100, where W1 is the amount of drug loaded onto the particles, and W0 is the amount of drug in the initial solution. The amount of drug loaded onto IO-MMMs was calculated from the difference between the initial drug concentration and the drug concentration left in the supernatant.

[3] = In vitro drug release in PBS buffer at two pH values; type: physicochemical; settings: from IO-MMM, slightly acidic pH of 4.5, after 48 h, 37° C.
Description: In a typical study, 5 mg of drug@IO-MMMs were suspended in 1 mL PBS buffer at two different pH values (pH=7.4 and pH=4.5) and gently rotated at 37° C. in an oven provided with a precise control in the temperature within 0.01° C. The concentration of drugs in the supernatant was determined at fixed time intervals by UV-vis spectroscopy. At specific time points, supernatant aliquots obtained by centrifugation were taken from each tube, measured and returned to their respective tubes after UV-vis measurements. The drug concentration could be directly calculated from the measured absorbance. Triplicate aliquots were run for each time interval, and average values plotted. The percent drug release was calculated using the equation below: % Drug Release=(Abs(t) of released drug/Abs(t0))×100.

Structure (SMILES) | molecular size [1] [nm] | amount of drug loaded [2] | total drug released [3] | loading efficiency [2] [%] | loading efficiencies depending on the initial drug concentrations used ([2]; onto IO-MMMs)
COc1cccc2c1C(=O)c1c(O)c3c(c(O)c1C2=O)C[C@@](O)(C(=O)CO)C[C@@H]3O[C@H]1C[C@H](N)[C@H](O)[C@H](C)O1 [Dox, Doxorubicin] | ~1.37 | ≤ 227 μg/mg of particles | about 40% | – | –
CC/C(=C(\c1ccccc1)c1ccc(OCCN(C)C)cc1)c1ccccc1 [Tam, Tamoxifen] | – | ≤ 165 μg/mg of particles | ~80% | ≤ 83 | 66-83%
COc1cccc2c1C(=O)c1c(O)c3c(c(O)c1C2=O)C[C@@](O)(C(C)=O)C[C@@H]3O[C@H]1C[C@H](N)[C@H](O)[C@H](C)O1 [Daun, Daunorubicin] | – | ≤ 235 μg/mg of particles | ~50% | ≤ 94 | –
